Experimental data: publication PMC12662201, “How ATP and dATP reposition class III ribonucleotide reductase cone domains to regulate enzyme activity” (Science Advances, 2025)

How the values were obtained:
[1] = target: T1, ΔConeOnly-StNrdD (Streptococcus thermophilus, UniProt A0A3G6JS83); test: LC-MS/MS of dGTP product after glycyl radical activation; format: biochemical; settings: 1 mM GTP, 1 mM TTP, no activity effector; 0.15 µM glycyl radical; 37 °C, 120 s; anaerobic
T1 construct: gene DF198_09700; cone domain removed (residues 1 to 115 deleted), connector kept; N-terminal His6 with thrombin site (pET15b); expressed in E. coli T7 Express
T1 sequence (A0A3G6JS83 116-734): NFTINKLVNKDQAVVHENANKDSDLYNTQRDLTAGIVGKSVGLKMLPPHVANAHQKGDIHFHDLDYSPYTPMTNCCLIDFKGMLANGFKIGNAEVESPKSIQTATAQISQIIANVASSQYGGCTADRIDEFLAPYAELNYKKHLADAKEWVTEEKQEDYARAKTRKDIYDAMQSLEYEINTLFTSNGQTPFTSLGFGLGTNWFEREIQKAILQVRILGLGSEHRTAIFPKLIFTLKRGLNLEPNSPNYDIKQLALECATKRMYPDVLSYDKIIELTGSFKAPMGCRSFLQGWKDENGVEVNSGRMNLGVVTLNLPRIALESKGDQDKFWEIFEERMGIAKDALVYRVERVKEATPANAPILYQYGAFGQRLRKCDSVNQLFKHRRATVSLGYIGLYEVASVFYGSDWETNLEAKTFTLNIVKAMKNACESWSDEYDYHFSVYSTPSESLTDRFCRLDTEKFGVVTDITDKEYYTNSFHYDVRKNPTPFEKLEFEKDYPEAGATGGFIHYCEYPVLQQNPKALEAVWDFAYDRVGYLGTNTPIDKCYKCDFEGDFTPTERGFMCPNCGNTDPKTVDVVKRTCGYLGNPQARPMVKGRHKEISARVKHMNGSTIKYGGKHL

[2] = target: T2, StNrdD (WT-StNrdD) (Streptococcus thermophilus, UniProt A0A3G6JS83); test: cryo-EM ([…] Å); format: binding; settings: allosteric specificity effector site at dimer interface; seen with both ATP and dATP; 1 mM TTP, 1 mM GTP, pH 7.5
T2 construct: gene DF198_09700; full length, 734 residues, N-terminal His6 with thrombin site (pET15b), tag cleaved before crystallization; expressed in E. coli T7 Express; dimer; Cys400 thiyl, Gly697 glycyl radical
T2 sequence (A0A3G6JS83 1-734): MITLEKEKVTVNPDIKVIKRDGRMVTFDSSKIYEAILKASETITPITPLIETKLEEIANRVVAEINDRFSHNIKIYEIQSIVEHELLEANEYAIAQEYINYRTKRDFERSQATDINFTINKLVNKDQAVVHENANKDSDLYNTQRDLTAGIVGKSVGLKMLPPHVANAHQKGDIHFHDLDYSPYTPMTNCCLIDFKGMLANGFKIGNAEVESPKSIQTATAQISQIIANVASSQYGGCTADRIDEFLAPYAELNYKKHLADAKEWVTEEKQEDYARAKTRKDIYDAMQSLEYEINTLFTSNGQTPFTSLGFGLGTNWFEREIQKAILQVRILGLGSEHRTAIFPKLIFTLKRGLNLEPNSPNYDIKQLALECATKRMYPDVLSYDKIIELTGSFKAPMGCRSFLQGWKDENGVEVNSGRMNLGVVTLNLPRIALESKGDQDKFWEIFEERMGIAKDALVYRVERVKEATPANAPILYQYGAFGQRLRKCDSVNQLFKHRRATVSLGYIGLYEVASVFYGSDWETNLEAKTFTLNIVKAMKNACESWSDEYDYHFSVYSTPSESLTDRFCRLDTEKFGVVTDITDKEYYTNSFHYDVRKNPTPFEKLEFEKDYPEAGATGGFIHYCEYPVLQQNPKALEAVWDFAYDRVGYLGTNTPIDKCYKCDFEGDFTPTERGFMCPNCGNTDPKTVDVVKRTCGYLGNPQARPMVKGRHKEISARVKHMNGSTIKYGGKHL

| Structure (SMILES) | LC-MS/MS of dGTP product after glycyl radical activation [1] | cryo-EM (3.6 Å) [2] |
| --- | --- | --- |
| Nc1nc2c(ncn2[C@@H]2O[C@H](COP(=O)(O)OP(=O)(O)OP(=O)(O)O)[C@@H](O)[C@H]2O)c(=O)[nH]1 [GTP] | GTP turnover proceeds in the absence of allosteric inhibitor dATP, although at a lower yield |  |
| Cc1cn([C@H]2C[C@H](O)[C@@H](COP(=O)(O)OP(=O)(O)OP(=O)(O)O)O2)c(=O)[nH]c1=O [TTP] |  | both structures have density for the TTP specificity effector bound at the dimer interface |
